Tested on: 565232-114-T-J1-PDC complex spheroid viability
Assay: Anticancer human tumor 565232-114-T-J1-PDC patient-derived bladder carcinoma cell line growth inhibition [CLK]
Details: for IC50: curve of first compound; for viability, T/C: stronger effect = lower value
Excerpt: A high-throughput screen of multi-cell type tumor spheroids was designed to identify active combinations of […] and targeted small molecules. Complex spheroids include a stromal component modeled by human endothelial cells (HUVEC) and fibroblasts modeled by human mesenchymal stem cells (MSCs). The concentration ranges selected for each drug and investigational agent were based upon clinically achievable concentrations if the clinical Cmax of the agent was known.
Compounds. The drugs and investigational agents: cirtuvivint (SM08502; NSC835563), CC-671 (NSC850746), vemurafenib (NSC761431), tapotoclax (NSC804041), sotorasib (NSC818433), adagrasib (NSC831453), MRTX-1133 (NSC836407), BAY2416964 (NSC825713), copanlisib (NSC816437), inavolisib (NSC800729), abemaciclib (NSC768073), osimertinib (NSC779217), entinostat (NSC756642), eltanexor (KPT-8602, NSC794443), venetoclax (NSC766270), ceralasertib (NSC777638), bortezomib (NSC756655), olaparib (NSC753686), talazoparib (NSC767125), alisertib (NSC759677), peposertib (NSC802822), gemcitabine (NSC613327), 5-fluorouracil (NSC19893), SN-38 (NSC673596), oxaliplatin (NSC266046), paclitaxel (NSC125973), and doxorubicin (NSC123127), were obtained from the National Cancer Institute (NCI) Developmental Therapeutics Program Chemical Repository. The FDA-approved anticancer drug set is available from the Developmental Therapeutics Program at https://dtp.cancer.gov/organization/dscb/obtaining/available plates.htm. […] The stock solutions were prepared in dimethyl sulfoxide (DMSO, Sigma-Aldrich, St. Louis, MO, cat. D2650), except for the platinum complexes which were prepared in saline (Quality Biological, Gaithersburg, MD, cat. 114-055-101), at 800-fold the tested concentration and stored at -70 degrees C prior to their use. All drugs and investigational agents were tested over a range starting from a high concentration at or near the clinical Cmax and decreasing in half-log increments. If the clinical Cmax for an agent had not been determined, the highest concentration tested was 10 microM.
Cell Culture. All cells were maintained in an incubator at 37 degrees C and 5% CO2 with 95% humidity. The PDC lines were cultured according to standard operating procedures established by the NCI PDMR. Briefly, all PDCs were thawed and cultured in Matrigel-coated flasks prepared with a working solution of 1X Ham's F-12 nutrient mix, without supplementation (Invitrogen, Waltham, MA, cat. 11765054), 100 U/mL penicillin-streptomycin (Invitrogen, cat. 15140122), and 2.5% Matrigel (Corning Inc., Corning, NY, cat. 354248) for the first three passages. The 947758-054-R-J2-PDC line was cultured in 6B/Colon 1A media, which includes advanced DMEM/F-12 (Thermo Fisher Scientific, cat. 12634028), 10 mM HEPES (Thermo Fisher Scientific, cat. 15630080), 1X GlutaMAX supplement (Thermo Fisher Scientific, cat. 35050061), 0.1 mg/mL primocin (InvivoGen, cat. ant-pm-2), 10% defined fetal bovine serum, heat inactivated (HyClone Laboratories Inc., cat. SH30070.03HI), 1.25 mM N-Acetyl-L-cysteine (Sigma-Aldrich, cat. A9165), 10 mM nicotinamide (Sigma-Aldrich, cat. N0636), 1X B-27 supplement (Thermo Fisher Scientific, cat. 17504044), 1X N-2 supplement (Thermo Fisher Scientific, cat. 17502048), and 10 microM Y-27632 dihydrochloride (Tocris Bioscience, cat. 1254). The 876862-298-R-J1-PDC was cultured in 6E media, which includes all 6B/Colon 1A media components plus 50% L-WRN conditioned media (ATCC, cat. CRL-3276), 50 ng/mL recombinant human EGF recombinant protein (hEGF; Thermo Fisher Scientific, cat. PHG0311), 10 ng/mL recombinant human fibroblast growth factor 10 (hGFG-10; PeproTech, cat. 100-26), 1 ng/mL recombinant human fibroblast growth factor 2 (hFGF-2; PeproTech, cat. 100-18B), and 1 µM prostaglandin E2 (PGE2; Tocris, cat. 2296). The 227483-062-R1-J1-PDC line was cultured in Panc media, containing all 6E components except hFGF-2, with the addition of 500 nM SB-431542 (Selleckchem, cat. S1067) and 10 nM gastrin (Tocris, cat. 3006). […]

[1] = second compound 0.0316 µM, first compound 0.0316 µM
[2] = second compound 0.0316 µM, first compound 0.1 µM
[3] = second compound 0.0316 µM, first compound 0.316 µM
[4] = second compound 0.0316 µM, first compound 1 µM
[5] = second compound 0.0316 µM, first compound 3.16 µM
[6] = second compound 0.0316 µM, first compound 10 µM
[7] = second compound 0.1 µM, first compound 0.0316 µM
[8] = second compound 0.1 µM, first compound 0.1 µM
[9] = second compound 0.1 µM, first compound 0.316 µM
[10] = second compound 0.1 µM, first compound 1 µM
[11] = second compound 0.1 µM, first compound 3.16 µM
[12] = second compound 0.1 µM, first compound 10 µM
[13] = second compound 0.316 µM, first compound 0.0316 µM
[14] = second compound 0.316 µM, first compound 0.1 µM
[15] = second compound 0.316 µM, first compound 0.316 µM
[16] = second compound 0.316 µM, first compound 1 µM
[17] = second compound 0.316 µM, first compound 3.16 µM
[18] = second compound 0.316 µM, first compound 10 µM
[19] = second compound 1 µM, first compound 0.0316 µM
[20] = second compound 1 µM, first compound 0.1 µM
[21] = second compound 1 µM, first compound 0.316 µM
[22] = second compound 1 µM, first compound 1 µM
[23] = second compound 1 µM, first compound 3.16 µM
[24] = second compound 1 µM, first compound 10 µM
[25] = second compound 3.16 µM, first compound 0.0316 µM
[26] = second compound 3.16 µM, first compound 0.1 µM
[27] = second compound 3.16 µM, first compound 0.316 µM
[28] = second compound 3.16 µM, first compound 1 µM
[29] = second compound 3.16 µM, first compound 3.16 µM
[30] = second compound 3.16 µM, first compound 10 µM
[31] = second compound 10 µM, first compound 0.0316 µM
[32] = second compound 10 µM, first compound 0.1 µM
[33] = second compound 10 µM, first compound 0.316 µM
[34] = second compound 10 µM, first compound 1 µM
[35] = second compound 10 µM, first compound 3.16 µM
[36] = second compound 10 µM, first compound 10 µM
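Note: spheroids exposed to compounds for 7 days before readout.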
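Throughout, for viability, T/C: 100% = DMSO vehicle wells with luminescence normalized to vehicle control.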

`CC1(C)CCC(CN2CCN(c3ccc(C(=O)NS(=O)(=O)c4ccc(NCC5CCOCC5)c([N+](=O)[O-])c4)c(Oc4cnc5[nH]ccc5c4)c3)CC2)=C(c2ccc(Cl)cc2)C1` + CNC(=O)c1ccc(Nc2nc(OC3CCCC3)c3c(-c4ccc5nc(C)oc5c4)c[nH]c3n2)c(OC)c1 was tested, and the IC50 (second compound 0.0316 µM) was 8790 nM, the IC50 (second compound 0.1 µM) was 2340 nM and the IC50 (second compound 0.316 µM) was under 31.6 nM. The IC50 (second compound 1 µM) was under 31.6 nM, the IC50 (second compound 3.16 µM) was under 31.6 nM and the IC50 (second compound 10 µM) was under 31.6 nM. It also gave a viability, T/C [1] of 82.7%, a viability, T/C [2] of 93.9% and a viability, T/C [3] of 95.7%. For the same molecule, the viability, T/C [4] was 95.2%, the viability, T/C [5] was 92.7% and the viability, T/C [6] was 44.7%. It also gave a viability, T/C [7] of 60.2%, a viability, T/C [8] of 55.1% and a viability, T/C [9] of 52.6%. It also gave a viability, T/C [10] of 53.6%, a viability, T/C [11] of 49.4% and a viability, T/C [12] of 30.5%. The viability, T/C [13] was 37.3%, the viability, T/C [14] was 38.1% and the viability, T/C [15] was 39.3%. For the same molecule, the viability, T/C [16] was 33.5%, the viability, T/C [17] was 32.7% and the viability, T/C [18] was 23.7%. It also gave a viability, T/C [19] of 21.2%, a viability, T/C [20] of 23.3% and a viability, T/C [21] of 25.4%. For the same molecule, the viability, T/C [22] was 26.6%, the viability, T/C [23] was 28.7% and the viability, T/C [24] was 20.6%. It also gave a viability, T/C [25] of 22%, a viability, T/C [26] of 20.8% and a viability, T/C [27] of 23.6%. It also gave a viability, T/C [28] of 20.8%, a viability, T/C [29] of 20.8% and a viability, T/C [30] of 17.1%. For the same molecule, the viability, T/C [31] was 21.5%, the viability, T/C [32] was 19.9% and the viability, T/C [33] was 18.5%. The viability, T/C [34] was 21.1%, the viability, T/C [35] was 20.1% and the viability, T/C [36] was 16.5%.

`CC(=O)O[C@H]1C(=O)[C@@]2(C)[C@H]([C@H](OC(=O)c3ccccc3)[C@]3(O)C[C@H](OC(=O)[C@H](O)[C@@H](NC(=O)c4ccccc4)c4ccccc4)C(C)=C1C3(C)C)[C@]1(OC(C)=O)CO[C@@H]1C[C@@H]2O` + CNC(=O)c1ccc(Nc2nc(OC3CCCC3)c3c(-c4ccc5nc(C)oc5c4)c[nH]c3n2)c(OC)c1 was tested, and the IC50 (second compound 0.0316 µM) was under 31.6 nM, the IC50 (second compound 0.1 µM) was under 31.6 nM and the IC50 (second compound 0.316 µM) was under 31.6 nM. For the same molecule, the IC50 (second compound 1 µM) was under 31.6 nM, the IC50 (second compound 3.16 µM) was under 31.6 nM and the IC50 (second compound 10 µM) was under 31.6 nM. It also gave a viability, T/C [1] of 24.3%, a viability, T/C [2] of 9.42% and a viability, T/C [3] of 9.43%. The viability, T/C [4] was 10%, the viability, T/C [5] was 13.3% and the viability, T/C [6] was 16.3%. For the same molecule, the viability, T/C [7] was 37.8%, the viability, T/C [8] was 32.8% and the viability, T/C [9] was 35.9%. The viability, T/C [10] was 29.6%, the viability, T/C [11] was 43.8% and the viability, T/C [12] was 42.9%. It also gave a viability, T/C [13] of 31.6%, a viability, T/C [14] of 38% and a viability, T/C [15] of 38.3%. The viability, T/C [16] was 46.9%, the viability, T/C [17] was 51% and the viability, T/C [18] was 46.5%. For the same molecule, the viability, T/C [19] was 22.9%, the viability, T/C [20] was 30.6% and the viability, T/C [21] was 30.7%. It also gave a viability, T/C [22] of 41.2%, a viability, T/C [23] of 41.4% and a viability, T/C [24] of 36.1%. It also gave a viability, T/C [25] of 24.4%, a viability, T/C [26] of 25.5% and a viability, T/C [27] of 25.1%. For the same molecule, the viability, T/C [28] was 29.9%, the viability, T/C [29] was 26.6% and the viability, T/C [30] was 29%. It also gave a viability, T/C [31] of 20.4%, a viability, T/C [32] of 22.3% and a viability, T/C [33] of 29.6%. It also gave a viability, T/C [34] of 28.1%, a viability, T/C [35] of 30.5% and a viability, T/C [36] of 27.7%.
